Laboratory results published in publication PMC6471225 (Molecules, 2019).

Assays:
[1] = tested on: TBEV Neudoerfl strain; format: cell-based, tick-borne encephalitis virus
[2] = tested on: TBEV Neudoerfl strain; assay: microbe, parasite or virus in culture; format: cell-based, tick-borne encephalitis virus; details: for IC50: Tick-borne encephalitis virus, A549, 72 h, read-out: half-maximum inhibitory concentration (IC50), reduction of viral titer by 50%
[3] = tested on: TBEV Hypr strain; format: cell-based, tick-borne encephalitis virus
[4] = in vitro; details: human, cytotoxic concentration (CC50) required to reduce cell viability by 50%
[5] = tested on: TBEV Hypr strain; format: cell-based, tick-borne encephalitis virus; remark: listed apart in the source
[6] = tested on: TBEV E and prM proteins; format: cell-based, tick-borne encephalitis virus
[7] = tested on: A549 cells; details: human

| Compound | inhibition of TBEV infection, size and number of plaques [1] | CC50 [4] | cell viability after inhibitory treatment (protection from TBEV-induced CPE) [5] | reduction of number of plaques vs DMSO-treated infected cells [1] | selectivity index (SI) CC50/IC50 [2] | IC50 [2] | further results |
| --- | --- | --- | --- | --- | --- | --- | --- |
| CC(=O)O[C@H]1[C@H](C)O[C@H](OC[C@H]2O[C@@H](n3ccc(=O)[nH]c3=O)[C@@H]3OC(C)(C)O[C@@H]32)C[C@@H]1O[Si](C)(C)C(C)(C)C [Compound 1] | minor or no antiviral effect | 74 µM | – | – | – | – | effect on viral growth [2]: did not affect viral growth; effect on viral growth [3]: did not affect viral growth |
| CC(=O)O[C@H]1[C@H](C)O[C@H](OC[C@H]2O[C@@H](n3ccc(=O)n(C(=O)c4ccccc4)c3=O)[C@@H]3OC(C)(C)O[C@@H]32)C[C@@H]1O[Si](C)(C)C(C)(C)C [Compound 2] | nearly a complete inhibition of TBEV infection | 141 µM | ~99% | 98% | 26.6 | 5.3 µM | plaque formation [1]: no plaques were detected; TBEV titer [2]: undetectable levels |
| CC1(C)OC2C(COC3CC(OCc4ccccc4)C(OCc4ccccc4)C(COCc4ccccc4)O3)OC(n3ccc(=O)[nH]c3=O)C2O1 (stereo not shown) [Compound 3] | minor or no antiviral effect | 97 µM | – | – | – | – | effect on viral growth [2]: did not affect viral growth; effect on viral growth [3]: did not affect viral growth |
| CC1(C)OC2C(COC3CC(OCc4ccccc4)C(OCc4ccccc4)C(COCc4ccccc4)O3)OC(n3ccc(=O)n(C(=O)c4ccccc4)c3=O)C2O1 (stereo not shown) [Compound 4] | nearly a complete inhibition of TBEV infection | 119 µM | ~99% | 90% | 85 | 1.4 µM | plaque formation [1]: no plaques were detected; reduction of the viral titer vs infected mock-treated cells [2]: 10^4 fold; virus detection in supernatant [2]: no virus was detected; synthesis of E and prM proteins [6]: completely inhibited the synthesis of both proteins |
| CC1(C)OC2C(COC3CC(OCc4ccccc4)C(OCc4ccccc4)C(CO[Si](C)(C)C(C)(C)C)O3)OC(n3ccc(=O)[nH]c3=O)C2O1 (stereo not shown) [Compound 5] | – | 79 µM | – | – | – | – | – |
| CC(=O)OCC1OC(OCC2OC(n3ccc(=O)[nH]c3=O)C3OC(C)(C)OC23)CC(OC(C)=O)C1OC(C)=O (stereo not shown) [Compound 6] | – | 196 µM | – | – | – | – | – |
| CC(=O)OCC1OC(OCC2OC(n3ccc(=O)[nH]c3=O)C3OC(C)(C)OC23)CC(OC(C)=O)C1OC(C)=O (stereo not shown) [Compound 7] | – | – | – | – | – | – | CC50 [7]: 223 µM |
| CC(=O)OCC1OC(OCC2OC(n3ccc(=O)n(Cc4ccccc4)c3=O)C3OC(C)(C)OC23)CC(OC(C)=O)C1OC(C)=O (stereo not shown) [Compound 8] | – | 225 µM | – | – | – | – | – |
| O=c1ccn(C2OC(COC3CC(O)C(O)C(CO)O3)C(O)C2O)c(=O)[nH]1 (stereo not shown) [Compound 9] | – | 238 µM | – | – | – | – | – |
| CC1(C)OC2C(COC3CC(OCc4ccccc4)C(OCc4ccccc4)C(CO[Si](C)(C)C(C)(C)C)O3)OC(n3ccc(=O)n(C(=O)c4ccccc4)c3=O)C2O1 (stereo not shown) [Compound 10] | nearly a complete inhibition of TBEV infection | 121 µM | 90% | 82–96% | 18.6 | 6.5 µM | – |
| CC1(C)OC2C(COC3CC(OCc4ccccc4)C(OCc4ccccc4)C(CO)O3)OC(n3ccc(=O)n(C(=O)c4ccccc4)c3=O)C2O1 (stereo not shown) [Compound 11] | nearly a complete inhibition of TBEV infection | 141 µM | 81% | 82–96% | 13.8 | 10.2 µM | – |
